Key:
in vitro = settings: human, CC50, uninfected A549 cells, CellTiter-Glo
[1] = test system: Influenza strain A549 A/WSN/33 (H1N1); experiment: microbe, parasite or virus in culture; format: cell-based; settings: Influenza A virus, A549, 20 h, A549 cells, influenza A/WSN/33 (H1N1), 20 hours incubation; read-out: A549_A(H1N1) EC50

SMILES: O=C1c2c(O)c(=O)ccn2N2CN1C/C=C\COc1ccc(Cl)cc1[C@H]2c1ccccc1 (single isomer, unassigned) [Compound 51A]
- CC50 (in vitro): > 2000 nM
- EC50 [1]: > 1000 nM

SMILES: O=C1c2c(O)c(=O)ccn2N2CN1C/C=C/CCOc1cccc(c1)C2c1ccccc1 (stereo not shown) [Compound 6, (*E)-15-hydroxy-2-phenyl-12,13,14,16-tetrahydro-11H-4-oxa-1(1,3)-pyrido[2,1-f][1,2,4]triazina-3(1,3)-benzenacyclononaphan-7-ene-14,16-dione]
- CC50 (in vitro): > 20000 nM
- EC50 [1]: 6150 nM

SMILES: O=C1c2c(O)c(=O)ccn2N2CN1C1(/C=C/COc3cccc4c3[C@H]2c2ccccc2SC4)CC1 (single isomer, unassigned) [Compound 107B, (17a′*S,*E)-12′-hydroxy-2′,17a′-dihydro-6′H-spiro[cyclopropane-1,9′-[3,4](epiprop[1]en[1]yl[3]ylidene)[10,17]methanobenzo[6,7]thiepino[4,5-c]pyrido[1,2-f][1]oxa[5,6,9]triazacyclotridecine]-11′,13′-dione]
- CC50 (in vitro): > 100 nM
- EC50 [1]: 1 nM

SMILES: O=C1c2c(O)c(=O)ccn2N2CN1C/C=C/COc1cccc3c1[C@@H]2c1ccccc1SC3 [Compound 46C, (17R,E)-12-hydroxy-2,6,9,17a-tetrahydro-3,4-(epiprop[1]en[1]yl[3]ylidene)-10,17-methanobenzo[6,7]thiepino[4,5-c]pyrido[1,2-f][1]oxa[5,6,9]triazacyclotridecine-11,13-dione]
- CC50 (in vitro): > 2000 nM
- EC50 [1]: 330 nM

SMILES: O=C1c2c(O)c(=O)ccn2N2CN1CC[C@H]1C[C@@H]1COc1cccc3c1[C@H]2c1ccccc1SC3 (single isomer, unassigned) [Compound 131BB, (1*S,13*R,15*S)-7-hydroxy-17-oxa-24-thia-2,3,10-triazaheptacyclo[16.12.1.12,10.03,8.013,15.022,31.025,30]dotriaconta-4,18,20,22(31),25(30),26,28-heptaene-6,9-dione]
- CC50 (in vitro): > 200 nM
- EC50 [1]: > 100 nM

SMILES: CC[C@@H]1/C=C/COc2c(F)cccc2[C@@H](c2ccccn2)N2CN1C(=O)c1c(O)c(=O)ccn12 (single isomer, unassigned) [Compound 154AA, (9*R,18*S,*E)-9-ethyl-4-fluoro-12-hydroxy-18-(pyridin-2-yl)-6,9-dihydro-18H-10,17-methanobenzo[b]pyrido[1,2-f][1]oxa[5,6,9]triazacyclotridecine-11,13-dione]
- CC50 (in vitro): > 100 nM
- EC50 [1]: > 50 nM

SMILES: O=C1c2c(O)c(=O)ccn2N2CN1C/C=C\COc1ccccc1[C@H]2c1ccccc1 [Compound 5A, (18R,Z)-12-hydroxy-18-phenyl-6,9-dihydro-18H-10,17-methanobenzo[b]pyrido[1,2-f][1]oxa[5,6,9]triazacyclotridecine-11,13-dione]
- CC50 (in vitro): > 2000 nM
- EC50 [1]: 8 nM

SMILES: O=C1c2c(O)c(=O)ccn2N2CN1CC/C=C\COc1ccc(F)c3c1[C@H]2c1cccc(F)c1SC3 (single isomer, unassigned) [Compound 151B, (1*S,13*Z)-20,25-difluoro-7-hydroxy-16-oxa-23-thia-2,3,10-triazahexacyclo[15.12.1.12,10.03,8.021,30.024,29]hentriaconta-4,7,13,17,19,21(30),24(29),25,27-nonaene-6,9-dione]
- CC50 (in vitro): > 100 nM
- EC50 [1]: 4.4 nM

SMILES: O=C1c2c(O)c(=O)ccn2N2CN1C/C=C\COc1ccccc1[C@H]2c1ccc(F)cc1 (single isomer, unassigned) [Compound 47A, (18*R,Z)-18-(4-fluorophenyl)-12-hydroxy-6,9-dihydro-18H-10,17-methanobenzo[b]pyrido[1,2-f][1]oxa[5,6,9]triazacyclotridecine-11,13-dione]
- CC50 (in vitro): > 2000 nM
- EC50 [1]: > 1000 nM

SMILES: O=C1c2c(O)c(=O)ccn2N2CN1C[C@@H]1C[C@H]1COc1cccc3c1[C@H]2c1ccccc1SC3 [Compound 87BB, (1aR,11bS,20aR)-17-hydroxy-1a,2,6,11b,20,20a-hexahydro-1H-5,4-(epiprop[1]en[1]yl[3]ylidene)-12,19-methanobenzo[6,7]thiepino[4,5-c]cyclopropa[k]pyrido[1,2-f][1]oxa[5,6,9]triazacyclotridecine-16,18-dione]
- CC50 (in vitro): > 200 nM
- EC50 [1]: 4 nM

SMILES: CC[C@@H]1/C=C/COc2c(ccc(F)c2F)[C@H](c2ccccn2)N2CN1C(=O)c1c(O)c(=O)ccn12 (single isomer, unassigned) [Compound 160BB, (9*R,18*R,*E)-9-ethyl-3,4-difluoro-12-hydroxy-18-(pyridin-2-yl)-6,9-dihydro-18H-10,17-methanobenzo[b]pyrido[1,2-f][1]oxa[5,6,9]triazacyclotridecine-11,13-dione]
- CC50 (in vitro): > 100 nM
- EC50 [1]: > 50 nM

SMILES: O=C1c2c(O)c(=O)ccn2N2CN1C[C@@H]1C[C@H]1COc1c(F)cccc1[C@H]2c1ccccc1 (single isomer, unassigned) [Compound 125AA, (1a*R,8*R,17a*R)-4-fluoro-14-hydroxy-8-phenyl-1a,2,17,17a-tetrahydro-1H,8H-9,16-methanobenzo[b]cyclopropa[k]pyrido[1,2-f][1]oxa[5,6,9]triazacyclotridecine-13,15-dione]
- CC50 (in vitro): > 200 nM
- EC50 [1]: 51 nM

SMILES: O=C1c2c(O)c(=O)ccn2N2CN1CC/C=C/COc1c(ccc(Cl)c1Cl)[C@@H]2c1ccccc1 (single isomer, unassigned) [Compound 111A, (2*S,*E)-33,34-dichloro-15-hydroxy-2-phenyl-12,13,14,16-tetrahydro-11H-4-oxa-1(1,3)-pyrido[2,1-f][1,2,4]triazina-3(1,2)-benzenacyclononaphan-6-ene-14,16-dione]
- CC50 (in vitro): > 200 nM
- EC50 [1]: 4.3 nM

SMILES: O=C1c2c(O)c(=O)ccn2N2CN1CCCCOc1ccc(F)cc1[C@@H]2c1ccccc1 (single isomer, unassigned) [Compound 30B, (18*S)-2-fluoro-12-hydroxy-18-phenyl-6,7,8,9-tetrahydro-18H-10,17-methanobenzo[b]pyrido[1,2-f][1]oxa[5,6,9]triazacyclotridecine-11,13-dione]
- CC50 (in vitro): > 2000 nM
- EC50 [1]: 15 nM

SMILES: O=C1c2c(O)c(=O)ccn2N2CN1CC/C=C/COc1ccccc1[C@@H]2c1ccccc1 [Compound 10A, (2S,E)-15-hydroxy-2-phenyl-12,13,14,16-tetrahydro-11H-4-oxa-1(1,3)-pyrido[2,1-f][1,2,4]triazina-3(1,2)-benzenacyclononaphan-6-ene-14,16-dione]
- CC50 (in vitro): > 2000 nM
- EC50 [1]: > 1000 nM

SMILES: COC[C@H]1/C=C/COc2c(ccc(F)c2F)[C@@H](c2ccccc2)N2CN1C(=O)c1c(O)c(=O)ccn12 (single isomer, unassigned) [Compound 153BB, (9*R,18*R,*E)-3,4-difluoro-12-hydroxy-9-(methoxymethyl)-18-phenyl-6,9-dihydro-18H-10,17-methanobenzo[b]pyrido[1,2-f][1]oxa[5,6,9]triazacyclotridecine-11,13-dione]
- CC50 (in vitro): > 100 nM
- EC50 [1]: 2.6 nM

SMILES: O=C1c2c(O)c(=O)ccn2N2CN1CC/C=C\COc1cccc3c1[C@H]2c1ccccc1SC3 (single isomer, unassigned) [Compound 37B, (1*S,13Z)-7-hydroxy-16-oxa-23-thia-2,3,10-triazahexacyclo[15.12.1.12,10.03,8.021,30.024,29]hentriaconta-4,7,13,17,19,21(30),24(29),25,27-nonaene-6,9-dione]
- CC50 (in vitro): > 200 nM
- EC50 [1]: 4 nM

Source: patent US11312727B1, “Macrocyclic flu endonuclease inhibitors” (Janssen BioPharma, Inc., priority 2018, dated 2022)
